The values that follow are results of earlier work, collected in patent publication US5670479A, “α-ketoamide derivatives as inhibitors of thrombosis” (Corvas International, Inc., priority 1994, dated 1997).

≈ marks a conversion by molar mass, not a printed value.

As a reminder, the Ki is the equilibrium dissociation constant of an inhibitor or competing ligand from its target.

Data set [1] addresses T1, microsomal aminopeptidase (Sus scrofa, UniProt P15145).
T1 sequence (P15145 1-963): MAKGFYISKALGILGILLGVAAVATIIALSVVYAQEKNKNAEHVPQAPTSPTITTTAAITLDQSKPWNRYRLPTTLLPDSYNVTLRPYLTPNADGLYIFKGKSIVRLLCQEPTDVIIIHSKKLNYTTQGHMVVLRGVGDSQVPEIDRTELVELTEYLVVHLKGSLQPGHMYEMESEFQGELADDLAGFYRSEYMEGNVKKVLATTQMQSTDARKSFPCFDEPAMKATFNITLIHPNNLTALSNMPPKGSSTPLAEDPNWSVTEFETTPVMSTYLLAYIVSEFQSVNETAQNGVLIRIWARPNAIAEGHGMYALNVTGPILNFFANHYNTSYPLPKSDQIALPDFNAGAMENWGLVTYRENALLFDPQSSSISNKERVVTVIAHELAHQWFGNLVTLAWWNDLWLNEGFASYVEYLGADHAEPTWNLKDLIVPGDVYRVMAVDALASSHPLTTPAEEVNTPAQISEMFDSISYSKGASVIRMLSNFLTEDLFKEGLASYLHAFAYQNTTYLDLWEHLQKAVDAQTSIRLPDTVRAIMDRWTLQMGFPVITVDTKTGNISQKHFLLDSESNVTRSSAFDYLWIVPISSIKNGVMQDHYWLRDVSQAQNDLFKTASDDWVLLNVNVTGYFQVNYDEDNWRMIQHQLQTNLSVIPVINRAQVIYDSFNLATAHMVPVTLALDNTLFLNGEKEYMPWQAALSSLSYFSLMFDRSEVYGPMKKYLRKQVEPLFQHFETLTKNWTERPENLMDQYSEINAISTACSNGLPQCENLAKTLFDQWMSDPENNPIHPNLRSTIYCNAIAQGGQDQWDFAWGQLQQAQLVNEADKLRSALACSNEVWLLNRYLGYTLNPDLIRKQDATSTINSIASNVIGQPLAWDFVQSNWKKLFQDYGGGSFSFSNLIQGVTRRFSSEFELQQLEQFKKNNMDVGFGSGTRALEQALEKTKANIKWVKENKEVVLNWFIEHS
Particulars: Ocain et al. 1992; cited from earlier work.

The subject of data set [2] is baboons. Particulars: baboon, other direct antithrombins evaluated earlier in this model, cited from earlier work; for Antihemostatic Effects APTT: control 32 sec; for Antihemostatic Effects Bleeding Time: control 4 min.
Data set [3] relates to baboons. Particulars: baboon; dose which gives a 50% inhibition of platelet deposition; other direct antithrombins evaluated earlier in this model; cited from earlier work.
Data set [4] has as its system thrombin. Particulars: Fusetani et al.; cited from earlier work.
Data set [5] deals with thrombin (Homo sapiens, UniProt P00734). Particulars: reported in literature; cited from earlier work.

In the case of `NC(=O)C(=O)C(N)Cc1ccccc1` (centres unmarked) [3-Amino-2-oxo-4-phenylbutanoic acid amide], in data set [1], the Ki was 2.5 µM.

Take `CC1CNc2c(cccc2S(=O)(=O)N[C@@H](CCCNC(=N)N)C(=O)N2CC[C@@H](C)C[C@@H]2C(=O)O)C1` (stereo partly drawn) [Argatroban, 2R,4R-4-methyl-1-[N-2-(3-methyl-1,2,3,4-tetrahydro-8-quinolinesulfonyl)-L-argininal]-2-piperdinecarboxylic acid]: the “Antihemostatic Effects APTT” value with baboons [2] is greater than 300 s. Moreover, the “Antithrombotic Effects ED50” value in the data set with baboons [3] is greater than 800 nmol/kg/min.

As for `N=C(N)NCCC[C@@H]1NC(=O)[C@@H]2CCCN2C(=O)[C@@H](NC=O)CNC(=O)/C=C/[C@H](Cc2ccc(O)cc2)NC(=O)[C@@H](Cc2ccccc2)NC(=O)C1=O` [Cyclotheonamide A], the “IC50 (thrombin)” value in the data set with thrombin [4] was 76 µg/mL (≈ 104 µM).

With `N=C(N)NCCC[C@@H](C=O)NC(=O)[C@@H]1CCCN1C(=O)[C@H](N)Cc1ccccc1` [dF-P-R-al, D-phenylalanyl-prolyl-argininal], in the data set with baboons [2], the “Antihemostatic Effects APTT” value is 145 s and the “Antihemostatic Effects Bleeding Time” value is recorded as 14 min. In the data set on baboons [3], the “Antithrombotic Effects ED50” value is 250 nmol/kg/min.

Take `NC(N)=NCCC[C@H](NC(=O)[C@@H]1CCCN1C(=O)[C@H](N)Cc1ccccc1)B(O)O` [dF-P-boroR, D-phenyalanyl-prolinyl-boroarginine]: in the data set with baboons [2], the “Antihemostatic Effects APTT” value was 95 s and the “Antihemostatic Effects Bleeding Time” value is recorded as 12 min. In addition, in the data set with baboons [3], the “Antithrombotic Effects ED50” value was 25 nmol/kg/min.

As for “N-acetyl-D-Phe-Pro Arg-[yC(=O)--CH2 ]--CH2 --CH2 --CH2 --(C=O)-Gln-Ser-His-Asn-Asp-Gly-Asp-Phe-Glu-Glu-Ile-Pro-Glu-Glu-Tyr-Leu-Gln”, the inhibitory constant (Ki) at thrombin [5] is 0.00014 µM.
